Reference: ChEMBL document CHEMBL1201862, “PubChem BioAssay data set” (2004)
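Exposure lasted 48 hours, with cells grown in 96-well plates and compounds tested at five concentrations. The concentration for 50% growth inhibition is given as GI50.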 Calls of active or inactive are those of the source. Cut-off read from the data, not from the text of the source: active = GI50 up to about 1.1 µM and inactive = higher.

Tests used:
Assay in all cases: NCI-60 cell line screen, 48 h
[1] = tested on: KM12
[2] = tested on: HCT-116
[3] = tested on: Malme-3M
[4] = tested on: 786-0
[5] = tested on: IGROV-1
[6] = tested on: TK-10
[7] = tested on: MDA-MB-435
[8] = tested on: HCT-15
[9] = tested on: NCI-H460
[10] = tested on: RPMI-8226
[11] = tested on: SF-268
[12] = tested on: UO-31
[13] = tested on: UACC-62
[14] = tested on: DU-145
[15] = tested on: OVCAR-5
[16] = tested on: RXF 393
[17] = tested on: HOP-62
[18] = tested on: NCI-H226
[19] = tested on: LOX IMVI

| SMILES | GI50 [1] | GI50 [2] | GI50 [3] | GI50 [4] | GI50 [5] | GI50 [6] | GI50 [7] | GI50 [8] [µM] | GI50 [9] | GI50 [10] | GI50 [11] | GI50 [12] | GI50 [13] | GI50 [14] | GI50 [15] | GI50 [16] | GI50 [17] | GI50 [18] | GI50 [19] |
| --- | --- | --- | --- | --- | --- | --- | --- | --- | --- | --- | --- | --- | --- | --- | --- | --- | --- | --- | --- |
| C/C=C1/CC(C(=O)OC)N(C(=O)OCc2ccccc2)C1=S (stereo not given) | > 100 µM (inactive) | > 100 µM (inactive) | > 100 µM (inactive) | > 100 µM (inactive) | > 100 µM (inactive) | > 100 µM (inactive) | > 100 µM (inactive) | > 100 | 12.3 µM (inactive) | > 100 µM (inactive) | > 100 µM (inactive) | > 100 µM (inactive) | > 100 µM (inactive) | > 100 µM (inactive) | > 100 µM (inactive) | > 100 µM (inactive) | > 100 µM (inactive) | – | – |
| Cc1cccc(C(C)C)c1NC(=O)C(=O)CC(=O)c1c(C)[n+]([O-])c2ccccc2[n+]1[O-] | 38.6 µM (inactive) | 32.1 µM (inactive) | 18.7 µM (inactive) | 49.1 µM (inactive) | 30.2 µM (inactive) | > 100 µM (inactive) | – | 20.9 | 21.5 µM (inactive) | 22.2 µM (inactive) | 30.1 µM (inactive) | > 100 µM (inactive) | 21.5 µM (inactive) | – | 45.9 µM (inactive) | 44.2 µM (inactive) | > 100 µM (inactive) | > 100 µM (inactive) | 23 µM (inactive) |
| O=C(CN1CCOCC1)c1ccc2c(c1)oc(=O)n2CCN1CCCC1 | > 100 µM (inactive) | > 100 µM (inactive) | > 100 µM (inactive) | > 100 µM (inactive) | > 100 µM (inactive) | > 100 µM (inactive) | > 100 µM (inactive) | > 100 | > 100 µM (inactive) | > 100 µM (inactive) | > 100 µM (inactive) | – | > 100 µM (inactive) | > 100 µM (inactive) | > 100 µM (inactive) | > 100 µM (inactive) | > 100 µM (inactive) | > 100 µM (inactive) | > 100 µM (inactive) |
| C#CCN(N=O)C(=O)NCCCCC(NC(=O)OCc1ccccc1)C(=O)OCc1ccccc1 (stereo not given) | > 100 µM (inactive) | 32.7 µM (inactive) | 29.9 µM (inactive) | > 100 µM (inactive) | 76 µM (inactive) | > 100 µM (inactive) | – | 33.7 | 98.2 µM (inactive) | 31.9 µM (inactive) | 27.6 µM (inactive) | > 100 µM (inactive) | 30.6 µM (inactive) | – | > 100 µM (inactive) | 25.4 µM (inactive) | > 100 µM (inactive) | > 100 µM (inactive) | 14.5 µM (inactive) |
| Cc1cc(NS(=O)(=O)c2ccc(NC(=O)c3cccc4c(N)c5ccccc5nc34)cc2)no1 | 18.9 µM (inactive) | 14.5 µM (inactive) | 30.9 µM (inactive) | 17.9 µM (inactive) | 27.5 µM (inactive) | 43.1 µM (inactive) | – | 33 | 32.9 µM (inactive) | 24 µM (inactive) | 21 µM (inactive) | 33.3 µM (inactive) | 28 µM (inactive) | – | 28.8 µM (inactive) | 16.3 µM (inactive) | 29.6 µM (inactive) | 17.7 µM (inactive) | 23.4 µM (inactive) |
| O=C1C(C(O)(C(F)(F)F)C(F)(F)F)CCC1C(O)(C(F)(F)F)C(F)(F)F (stereo not given) | 0.946 µM (active) | 0.556 µM (active) | 1.06 µM (active) | 3.87 µM (inactive) | 5.48 µM (inactive) | 42.1 µM (inactive) | 13.2 µM (inactive) | 28.3 | 8.83 µM (inactive) | 0.142 µM (active) | 5.7 µM (inactive) | 1.09 µM (active) | 1.78 µM (inactive) | 7.96 µM (inactive) | 9.98 µM (inactive) | 0.346 µM (active) | 0.569 µM (active) | 0.33 µM (active) | 0.594 µM (active) |
| O=C1c2ccccc2/C=C\C(c2ccccc2)=N/N1c1ccccc1Cl | 11.6 µM (inactive) | 28.1 µM (inactive) | 23.3 µM (inactive) | 29.2 µM (inactive) | 29.4 µM (inactive) | 42.8 µM (inactive) | 3.44 µM (inactive) | 29.5 | 28.6 µM (inactive) | 23.7 µM (inactive) | 54.2 µM (inactive) | 32.5 µM (inactive) | – | 49.1 µM (inactive) | 72.3 µM (inactive) | 19.2 µM (inactive) | 23.2 µM (inactive) | 46.8 µM (inactive) | 25.1 µM (inactive) |
| COc1nc(=O)cc(N)n1C1OC(CO)C(O)C1O (stereo not given) | > 100 µM (inactive) | > 100 µM (inactive) | > 100 µM (inactive) | > 100 µM (inactive) | > 100 µM (inactive) | > 100 µM (inactive) | – | > 100 | > 100 µM (inactive) | > 100 µM (inactive) | > 100 µM (inactive) | > 100 µM (inactive) | > 100 µM (inactive) | – | > 100 µM (inactive) | > 100 µM (inactive) | > 100 µM (inactive) | > 100 µM (inactive) | > 100 µM (inactive) |
| CC1(C)CC(=O)C/C(=N/c2ccc([N+](=O)[O-])cc2)C1 | > 100 µM (inactive) | 17.6 µM (inactive) | > 100 µM (inactive) | > 100 µM (inactive) | > 100 µM (inactive) | > 100 µM (inactive) | – | 64.3 | > 100 µM (inactive) | 53.5 µM (inactive) | > 100 µM (inactive) | 54.6 µM (inactive) | > 100 µM (inactive) | – | > 100 µM (inactive) | 47.4 µM (inactive) | > 100 µM (inactive) | > 100 µM (inactive) | 19.2 µM (inactive) |
| CC(=O)OCC(OC(C)=O)C1C[C@H]2O[C@@H]3[C@H](C[C@H]2O1)O[C@@]1(C[C@@H]3C)C[C@H](C)[C@@H]2O[C@]3(C[C@@H]2O1)C[C@H]1O[C@H]2[C@H](C)[C@H]4OC(=O)C[C@H]5CC[C@@H]6OC7[C@H]8O[C@]9(CC[C@H]%10CC(=O)[C@H](CC[C@H]%11C[C@@H](C)C(=O)C(C[C@@H]4O[C@H]2C[C@H]1O3)O%11)O%10)CC8O[C@@H]7[C@@H](O9)[C@H]6O5 (stereo not given in full) | 0.00183 µM (active) | 0.00234 µM (active) | – | 0.00308 µM (active) | 0.00322 µM (active) | – | 0.000195 µM (active) | 0.00635 | 0.00315 µM (active) | 0.00229 µM (active) | 0.00509 µM (active) | 0.0388 µM (active) | 0.00248 µM (active) | 0.00423 µM (active) | – | 0.00283 µM (active) | 0.00505 µM (active) | 0.00703 µM (active) | 0.00486 µM (active) |
| NC1=C2C(Br)=CN([C@@H]3O[C@H](CO)[C@@H](O)[C@@H]3O)C2C(=O)N=N1 (stereo not given in full) | 7.38 µM (inactive) | 1.82 µM (inactive) | 6.89 µM (inactive) | 12.4 µM (inactive) | 3.99 µM (inactive) | 15.4 µM (inactive) | – | 1.25 | 1.49 µM (inactive) | 1.94 µM (inactive) | 9.51 µM (inactive) | 4.85 µM (inactive) | 16.6 µM (inactive) | – | 2.28 µM (inactive) | 2.28 µM (inactive) | 15.1 µM (inactive) | 18.2 µM (inactive) | 1.03 µM (active) |
